Experimental data from publication PMC12641998, “Development of Cell-Permeable Adenylosuccinate Lyase Inhibitor” (Methods and Protocols, 2025).
“Also recorded” adds a separate entry of the source.

Columns and labels:
[1] = Permeability through an in vitro model of blood-brain barrier; assay type: in vitro ADME; settings: Figure S7, n = 3
Excerpt: (1 picture or pasted object on this page, not shown here)

ADSL in HeLa cells = test: Cellular SAICAR, AICAR, S-AMP and AMP levels by HILIC-HPLC-MS; assay type: cell-based, human; settings: 12 h, triethylammonium salt form
Experimental: Cellular experiments and the measurement of nucleotides were carried out as we previously reported. […] The media were removed, and cells were washed five times with Dulbecco’s phosphate-buffered saline. Cells were lysed in ice-cold extraction solvent (95% methanol with 10 mM triethylammonium bicarbonate). The lysates were transferred to a centrifuge tube. Debris was removed by centrifugation at 150,000× g for 10 min at 4 °C. The supernatant was passed through Amicon Ultracel centrifugal filters (molecular weight cut-off 3 kDa). The filtrates were dried in vacuum and dissolved in 0.10 mL of extraction solvent. A 10 μL portion of this solution was subjected to HILIC-MS as we previously described. To measure cell proliferation, cells were detached by trypsin-EDTA and counted using a Moxi-Z cell counter as we previously described.
Next, we asked whether 1 inhibits ADSL in mammalian cells. […] Cells were lysed, and the amounts of SAICAR and S-AMP were measured by HILIC-HPLC-MS as we previously reported (Figure 6).

recombinant human ADSL [2] = biological target: T1, recombinant human ADSL (Homo sapiens, UniProt P30566); test: ADSL enzyme activity assay (A280); assay type: biochemical; settings: for effect on ADSL in subsequent tests after the screen: follow-up of screening hits
T1 construct: made in house
T1 sequence (P30566 1-484): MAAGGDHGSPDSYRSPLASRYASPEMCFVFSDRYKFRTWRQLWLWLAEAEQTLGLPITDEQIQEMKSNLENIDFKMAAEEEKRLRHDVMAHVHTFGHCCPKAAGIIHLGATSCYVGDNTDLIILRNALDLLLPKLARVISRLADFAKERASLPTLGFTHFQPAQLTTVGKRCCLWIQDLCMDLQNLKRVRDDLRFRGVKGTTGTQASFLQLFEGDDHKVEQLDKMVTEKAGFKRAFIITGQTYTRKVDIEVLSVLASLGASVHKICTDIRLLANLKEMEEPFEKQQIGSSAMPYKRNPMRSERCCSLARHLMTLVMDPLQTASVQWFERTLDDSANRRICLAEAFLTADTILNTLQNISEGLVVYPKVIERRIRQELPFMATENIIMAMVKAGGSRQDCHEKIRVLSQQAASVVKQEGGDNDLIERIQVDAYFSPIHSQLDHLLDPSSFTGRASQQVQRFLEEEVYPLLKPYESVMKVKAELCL
Experimental: ADSL activity assays were performed as described in the literature. In brief, 0.60 mL solution containing recombinant human ADSL (0–2 μM), the test compound, 20 mM HEPES, pH 7.9, 50 mM KCl, 1 mM MgCl2, 1 mM DTT, and 1% DMSO was placed in a semi-micro quartz cuvette. This solution was kept at 37 °C for 30 min. The reaction was initiated by the addition of S-AMP or SAICAR to a final concentration of 0–2 mM (typically 0.20 mM). A280 was monitored every 5 s for 1 h using a Beckman DU650 spectrophotometer.

recombinant human ADSL [3] = biological target: T1, recombinant human ADSL; test: Screening of LOPAC 1280 compounds for ADSL inhibitors; assay type: biochemical; settings: 2 µM compound, 0.2 µM ADSL, 0.2 mM S-AMP
Experimental: In each well of UV-transparent 384-well plates, a 45 μL solution containing 0.20 μM recombinant human ADSL and 2 μM screening compounds from the LOPAC 1280 library was placed. The reaction buffer contained 20 mM HEPES, pH 7.9, 50 mM KCl, 1 mM MgCl2, 1 mM DTT, and 1% (v/v) DMSO. Following a 30 min-long incubation at ambient temperature, the reaction was initiated by the addition of S-AMP (final: 0.20 mM). The reaction was monitored by measuring A280 every 10 min for 4 h at 37 °C.
To identify ADSL inhibitors, the effects of LOPAC® 1280 library compounds on the activity of recombinant human ADSL were measured (Figure 2A). […] ADSL activity was monitored by measuring changes in A280 for 4 h at 37 °C. Compounds inhibiting ADSL activity by more than three standard deviations (Z-score < −3, Figure 2A) were counted as hits.

## O=C(Nc1ccccc1S(=O)(=O)O)c1cccc(C(=O)Nc2ccccc2S(=O)(=O)O)c1 [Compound 1, 2,2’-(1,3-phenylenebis(carbonylimino))bisbenzenesulfonate]
[1]
  permeability through blood–brain barrier in vitro: limited permeability; also recorded: comparable to the low -permeability standard
ADSL in HeLa cells
  effect on the cellular level of S-AMP and AMP: less effect
  increase of cellular level of SAICAR: approximately 2.5 fold
  level of AICAR, lower by: approximately 30%
ADSL in HeLa cells; Homo sapiens, read-out: EC50, increase of cellular level of SAICAR
  EC50: 400 nM

## O=C(Nc1ccccc1)c1cccc(C(=O)Nc2ccccc2)c1 [Compound 3, N, N’-diphenylisopthalamide]
Recombinant human ADSL [2]; concentrations tested up to 30 μM
  inhibition of ADSL: did not inhibit ADSL

## O=C(Nc1cc(C(=O)Nc2ccc(S(=O)(=O)O)cc2S(=O)(=O)O)cc(C(=O)Nc2ccc(S(=O)(=O)O)cc2S(=O)(=O)O)c1)Nc1cc(C(=O)Nc2ccc(S(=O)(=O)O)cc2S(=O)(=O)O)cc(C(=O)Nc2ccc(S(=O)(=O)O)cc2S(=O)(=O)O)c1 [NF-449]
Recombinant human ADSL [2]; Lineweaver-Burk plot
  mechanism of ADSL inhibition: competitive
Recombinant human ADSL [2]; Lineweaver-Burk plot, read-out: Ki, inhibition of ADSL
  Ki: 240 nM
Recombinant human ADSL [2]; S-AMP as substrate (0.2 mM), read-out: IC50, inhibition of ADSL
  IC50: 1400 nM
Recombinant human ADSL [3]
  screening outcome (hit: Z-score < −3): might be an inhibitor of ADSL

## N=C(NO)NCCC[C@H](N)C(=O)O [N^ω-hydroxyl-L-arginine]
Recombinant human ADSL [2]
  effect on ADSL in subsequent tests after the screen: ADSL became aggregated
Recombinant human ADSL [3]
  screening outcome (hit: Z-score < −3): potential ADSL inhibitors

## CCCCc1oc2ccccc2c1C(=O)c1cc(I)c(OCCN(CC)CC)c(I)c1 [amiodarone]
Recombinant human ADSL [2]
  effect on ADSL in subsequent tests after the screen: did not inhibit ADSL
Recombinant human ADSL [3]
  screening outcome (hit: Z-score < −3): potential ADSL inhibitors
